For orientation: Tmax means the time from dosing to the highest level.

Read-outs that look alike come from different tables or passages of the source.

The values that follow come from US8148386B2, “Agent for the prevention and treatment of prostatic hyperplasia comprising pyrazolopyrimidinone compound” (priority 2006, dated 2012).

The conditions of series [1]: cited from earlier work.
Series [2] can be described thus: Interrupt rate of administration due to side effects of PDE-5 inhibitors after clinical trials on impotence.
A short description of series [3]: Phase 1 clinical trial: safety, tolerability and pharmacokinetics in healthy adults. In kind it is in vivo, human.
Series [4] concerns BPH rat models. The experiment in a line: Single administration: intraurethral pressure in BPH rat models. Format: in vivo, Wistar rats. On the procedure:
In the present experiment, thirty male white […] rats of 300 to 350 g were randomly divided into five control groups of six rats. The first group (1') was left untreated as a normal group and the other groups were those whose testicles were resected. From a couple of days after the operations, each rat in the third to fifth groups was given a daily hypodermic injection of 1 mg of testosterone and 0.01 mg of 17 beta-estradiol for 8 weeks. After 8 weeks, all rats were anesthetized by an intraperitoneal injection with 50 mg/kg of pentobarbital, and intubated with polyethylene needles. The second group (2') was those whose testicles were resected only; the third group (3') was treated with a solvent; the fourth group (4') was treated with 0.3 mg/kg of the pyrazolopyrimidinone compound of formula 1; and the fifth group (5') was treated with 1 mg/kg of the pyrazolopyrimidinone compound of formula 1, the fourth and fifth groups being administrated via intravenous injections. […] In the measurement, 5, 10 and 20 Hz of electrostimulations were applied to hypogastric nerves using a stainless steel anode electrode, and the measured results were shown in FIGS. 5 to 8.

A further series deals with PDE-11 (Homo sapiens, UniProt Q9HCR9).
The subject of series [5] is BPH rat models. The experiment in a line: Repeated administration: intraurethral pressure in BPH rat models. Conditions: oral 1, 5 and 20 mg/kg for 8 weeks; 5, 10 and 20 Hz electrostimulation of hypogastric nerves; FIGS. 1 to 4. Format: in vivo, Wistar rats. On the procedure: In the present experiment, thirty-six male white Wistar rats of 300 to 350 g were randomly divided into six control groups of six rats. The first group (1) was left untreated as a normal control group and the other groups were those whose testicles were […]. From a couple of days after the operations, each rat in the third to sixth groups was given a daily hypodermic injection of 1 mg of testosterone and 0.01 mg of 17 beta-estradiol for 8 weeks. The second group (2) was those whose testicles were […] only; the third group (3) was treated with a solvent; the fourth group (4) was treated with 1 mg/kg of the pyrazolopyrimidinone compound of formula 1; the fifth group (5) was treated with 5 mg/kg of the pyrazolopyrimidinone compound of formula 1; and the sixth group (6) was treated with 20 mg/kg of the pyrazolopyrimidinone compound of formula 1, the fourth to sixth groups being orally administrated for 8 weeks. After 8 weeks, all rats were anesthetized by an intraperitoneal injection with 50 mg/kg of pentobarbital, and intubated with polyethylene needles. […] In the measurement, 5, 10 and 20 Hz of electrostimulations were applied to hypogastric nerves using a stainless steel anode electrode, and the measured results were shown in FIGS. 1 to 4.

The conditions of series [6]: Xenobiotica 2004 34:973-982; cited from earlier work.
Series [7] is described as follows: Pharmacokinetic experiment in the human body (BPH patients). In kind it is in vivo. The method, then:
The test was carried out in a double-blind manner and the participants were administrated with the test drugs with 240 ml of water at 8:00 to 9:00 am of the test day. After administration, all participants were fasted for four hours. After the fast, they were served a lunch of standard diet and provided a dinner of standard diet nine hours after the lunch. Blood collections were carried out before administrating the test drugs and 0.5, 1, 1.5, 2, 2.5, 3, 4, 5, 6, 8, 12 and 24 hours after the administration on the test day. From the bloods collected, blood plasmas were separated and analyzed using high performance liquid chromatography (HPLC). […] of 0.1 M sodium carbonate and 1.0 ml of ethylether were added to each 0.5 ml of blood plasma and mixed well for one minute. Then, the resultant solutions were centrifuged at […] for three minutes. Subsequently, the supernatants were collected, from which organic solvents were volatilized using a Speed-Vac, to which […] of mobile phases were added, stirred and injected into the high performance liquid chromatography (HPLC).

In another series the target is PDE-5 (Homo sapiens, UniProt O76074). The experiment in a line: Inhibition of PDE-5 activity. In kind it is biochemical.
A short description of series [8]: Tissue distribution in urogenital organs. Conditions: male, Sprague-Dawley, rat, 30 mg/kg.
Description: Male white Sprague-Dawley (SD) rats were randomly assigned by four to five rats at different time points. […] At different time points of 30 minutes, 2 hours and 6 hours after administration, bloods were collected through abdominal aortas and urogenital organs were extracted. Phosphate buffer of pH 7.4 was added to the extracted organs to be homogenized. […] Analyses were performed using a Hichrom HIRPB column (150×4.6 mm, particle size: 5 μm) at fixed wavelength of 292 nm with a mobile phase mixed with 20 nM of KH2PO4 and acetonitrile in a volume ratio of 70:30. The mobile phase flow rate was 1 ml/min. and the amount of sample introduced was 100 ml.

Chain of PDE-11 (Q9HCR9 whole entry): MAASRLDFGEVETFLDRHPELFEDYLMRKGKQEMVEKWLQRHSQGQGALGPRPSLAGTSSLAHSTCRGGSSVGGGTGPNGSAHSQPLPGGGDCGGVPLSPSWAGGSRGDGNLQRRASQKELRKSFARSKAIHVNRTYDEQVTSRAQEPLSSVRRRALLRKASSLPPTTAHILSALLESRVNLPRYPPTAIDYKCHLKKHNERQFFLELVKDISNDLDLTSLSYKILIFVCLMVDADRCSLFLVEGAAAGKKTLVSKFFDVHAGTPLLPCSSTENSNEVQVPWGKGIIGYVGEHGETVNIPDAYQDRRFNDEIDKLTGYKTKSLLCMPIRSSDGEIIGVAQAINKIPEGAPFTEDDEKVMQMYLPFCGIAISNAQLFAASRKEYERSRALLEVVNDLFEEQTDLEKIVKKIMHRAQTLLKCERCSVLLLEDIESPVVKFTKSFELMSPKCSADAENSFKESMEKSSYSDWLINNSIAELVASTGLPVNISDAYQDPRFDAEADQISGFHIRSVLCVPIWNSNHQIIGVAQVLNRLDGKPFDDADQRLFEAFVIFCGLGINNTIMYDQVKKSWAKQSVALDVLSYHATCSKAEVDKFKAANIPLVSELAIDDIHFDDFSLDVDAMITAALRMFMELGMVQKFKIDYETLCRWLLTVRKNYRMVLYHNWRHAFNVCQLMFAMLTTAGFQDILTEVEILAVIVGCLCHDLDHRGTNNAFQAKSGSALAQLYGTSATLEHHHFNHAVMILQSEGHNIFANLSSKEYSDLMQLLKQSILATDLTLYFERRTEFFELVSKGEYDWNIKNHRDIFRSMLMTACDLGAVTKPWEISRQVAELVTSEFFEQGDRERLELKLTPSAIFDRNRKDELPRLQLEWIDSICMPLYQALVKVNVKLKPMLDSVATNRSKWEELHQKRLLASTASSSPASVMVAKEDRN

As for `CN1CC(=O)N2[C@H](c3ccc4c(c3)OCO4)c3[nH]c4ccccc4c3C[C@@H]2C1=O` [Cialis], the IPSS change is listed as 2.8 points in series [1] (5 mg once a day for 6 weeks) and 3.8 points in series [1] (dose increased to 20 mg, additional 6 weeks). The “interrupt rate of administration due to the side effects” value in series [1] (phase 2 clinical trial) is recorded as 3.6%. For the same molecule, the “Interrupt rate (%) of administration due to side effects” value (from here on “Interrupt rate (%)”) in [2] (5 mg) is 0.7%; in [2] (10 mg), 1.6%; in series [2] (20 mg), 3.1%.

For the molecule `CCCOc1ccc(S(=O)(=O)NCCC2CCCN2C)cc1-c1nc2c(CCC)nn(C)c2c(=O)[nH]1` (stereo not shown) [Compound of formula 1, 5-[2-propyloxy-5-(1-methyl-2-pyrrolidinylethylamidosulfonyl)phenyl]-1-methyl-propyl-1,6-dihydro-7H-pyrazolo(4,3-d)pyrimidin-7-one], the half-life in series [3] (human, in vivo, oral, regardless of the doses administrated, healthy adults) is 9 to 15 h; in series [7] (human, in vivo, 100 mg) it was 12.1 ± 3.2 h; in series [7] (male, human, in vivo), 9 to 15 h. Moreover, the time to peak (Tmax) in series [3] (human, in vivo, after oral administration, healthy adults) fell in the range of 1 to 2 h. For the same molecule, the “abnormal responses to the test substance” value in series [3] (phase 1 clinical trial) is “no serious abnormal responses”. Also, in [3] (repeated administration once a day for 7 days), the accumulation of drug entry is reported as “not observed”. Also, the “intraurethral pressure, significance of decrease” value with BPH rat models [4] (0.3 mg/kg intravenous, 5 and 10 Hz) is “did not show significant decreases”. The “intraurethral pressure, significance of change” value with BPH rat models [4] (0.3 mg/kg intravenous, 20 Hz) is listed as “significant increase”. Further, the “prevention of increases in the intraurethral pressure in comparison with sildenafil” value in the series with BPH rat models [4] (single administration, sildenafil of same volume) is reported as “excellent effects”. Further, the “increases in the intraurethral pressure” value with BPH rat models [4] (single intravenous injection 0.3 and 1 mg/kg, FIGS. 5 to 8) is recorded as “prevented dose-dependently”. Further, the “Interrupt rate (%)” value came to 0.0% in series [2] (100 mg) and 1.2% in [2] (200 mg). Moreover, on PDE-11, the “inhibition of the activity of PDE-11” value is “does not have an inhibiting power”. Further, the “intraurethral pressures (IUP)” value in the series on BPH rat models [5] is “decreased dose-dependently and significantly”. Also, the “residual rate after liver metabolism” value in series [6] is recorded as 93.0%. Further, the “inhibitive activity for PDE-5” value against PDE-5 is reported as “strong inhibitive activity”. Further, the “selectivity for PDE-5” value at PDE-5 is “excellent selectivity”.

`CCCc1nc(C)c2c(=O)[nH]c(-c3cc(S(=O)(=O)N4CCN(CC)CC4)ccc3OCC)nn12` [Levitra]: the “Interrupt rate (%)” value in series [2] (5 mg) is 2.7%; in series [2] (10 mg), 2.9%; in [2] (20 mg), 6.6%.

Consider `CCCc1nn(C)c2c(=O)[nH]c(-c3cc(S(=O)(=O)N4CCN(C)CC4)ccc3OCC)nc12` [Sildenafil], for which the “Interrupt rate (%)” value in series [2] (25 mg) turned out to be 0.0%; in [2] (50 mg) it was 0.7%; in [2] (100 mg), 3.9%. The concentration at 30 min in [8] came to 0.319 µg/mL. In series [8], this molecule yielded a concentration at 120 min of 0.633 µg/mL. This molecule showed a concentration at 360 min in series [8] of 0.259 µg/mL. In addition, the half-life is 4.1 ± 1.1 time in series [7] (50 mg, BPH patients, plasma) and 3 to 5 h in series [7] (male, human, plasma, oral, summary of Table 3, read-out: half-life).
